Two molecules from ChEMBL document CHEMBL1136909, “Discovery of a novel HCV helicase inhibitor by a de novo drug design approach” (Bioorg Med Chem Lett, 2009) can be followed below.

For one data set, the system named is Hepacivirus hominis. The data set is described as follows: Inhibition of HCV recombinant NS3 helicase at 100 uM.
A short description of data set [1]: Inhibition of HCV recombinant NS3 helicase. Also on record: species or system Hepacivirus hominis.
Data set [2] is described as follows: Cytotoxicity against human Huh5-2 cells by MTS assay. Type of data set: cell-based, Huh-5-2.
A further data set has as its system Hepatitis C virus. Nature of the data set: Antiviral activity against HCV in human Huh5-2 cells assessed as inhibition of HCV subgenomic replication. The format is functional, organism-based, Hepacivirus hominis. The settings on record: Huh-5-2.

≈ marks a conversion by molar mass, not a printed value. Calls of active or inactive are those of the source. No cut-off for these calls is given here.

Consider `COC(=O)c1ccc(CNC(=O)c2cc(/C=C/C(C)=O)c[nH]2)cc1`, for which the result in the data set with Hepacivirus hominis was inactive.
Consider `COC(=O)c1ccc(CNC(=O)c2ccc(/C=C/C(C)=O)[nH]2)cc1`, for which the half-inhibitory concentration (IC50) in data set [1] came to 260 nM. Further, in data set [2], the 50% cytotoxic concentration (CC50) came out at 10 µg/mL (≈ 30.6 µM). For the same molecule, the 50% effective concentration (EC50) with Hepatitis C virus stood at 3 µg/mL (≈ 9.19 µM).
